{"source": "BindingDB's records for doi:10.7270/Q2TX3CTT", "about": "(Broad Institute, 2010)", "note": "Counter-ions that a name gives are not always drawn.", "data": [{"molecular_target": "Glycogen synthase kinase-3 beta (Homo sapiens, UniProt P49841)", "sequence (P49841 whole entry)": "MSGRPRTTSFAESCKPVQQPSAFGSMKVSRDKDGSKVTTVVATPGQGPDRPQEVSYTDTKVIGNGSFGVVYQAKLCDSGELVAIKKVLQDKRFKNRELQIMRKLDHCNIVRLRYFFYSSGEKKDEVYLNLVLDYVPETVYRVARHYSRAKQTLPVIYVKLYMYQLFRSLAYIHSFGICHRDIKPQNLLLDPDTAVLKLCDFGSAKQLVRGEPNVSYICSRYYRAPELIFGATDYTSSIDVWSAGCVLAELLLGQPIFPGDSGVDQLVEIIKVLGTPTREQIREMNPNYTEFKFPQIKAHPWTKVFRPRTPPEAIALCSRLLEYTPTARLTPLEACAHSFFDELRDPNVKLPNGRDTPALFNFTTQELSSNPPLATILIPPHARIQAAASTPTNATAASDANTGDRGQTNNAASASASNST", "assay": "concentration-response blocking of human GSK3B – biochemical, luminescence, cell-free homogeneous, retest, dose response (AID 434954)", "units": {"EC50": "µM"}, "values": [{"smiles": "Nc1nc(NCCc2ccccc2)nc(NCCO)c1[N+](=O)[O-]", "note": "[MLS001213372]", "EC50": 2.01}, {"smiles": "Nc1nc(NCCO)nc(NCC2CCCO2)c1[N+](=O)[O-]", "note": "(stereo unspecified)", "EC50": 9.74}, {"smiles": "C[C@]12C=CC(=O)C=C1CC[C@@H]1C2C(O)C[C@@]2(C)C1CC[C@]2(O)C(=O)COC(=O)CCC(=O)O", "note": "(stereo partly drawn) [4-[2-[(8S,10R,11S,13S,17R)-11,17-dihydroxy-10,13-dimethyl-3-oxo-7,8,9,11,12,14,15,16-octahydro-6H-cyclopenta[a]phenanthren-17-yl]-2-oxoethoxy]-4-oxobutanoic acid]", "EC50": "> 300"}, {"smiles": "O=C1CCCc2oc3ccc(O)cc3c21", "note": "[SMR000125008]", "EC50": "> 300"}, {"smiles": "O=C1CC(N2CCC(c3nc4ccccc4s3)CC2)C(=O)N1", "note": "(stereo unspecified) [MLS000063725]", "EC50": "> 300"}, {"smiles": "COc1ccc(C(=O)c2sc(Nc3ccccc3)nc2N)cc1OC", "note": "[MLS001202046]", "EC50": 0.358}, {"smiles": "COc1ccc(C(C)N2CC34C=CC(O3)C(C(=O)O)C4C2=O)cc1", "note": "(stereo unspecified) [3-[1-(4-Methoxy-phenyl)-ethyl]-4-oxo-10-oxa-3-aza-tricyclo[5.2.1.0*1,5*]dec-8-ene-6-carboxylic acid]", "EC50": "> 300"}, {"smiles": "O=C1C[C@@H](c2ccc(O)cc2)Oc2cc(O)ccc21", "note": "[7-Hydroxy-2-(4'-hydroxyphenyl)chroman-4-one]", "EC50": "> 300"}, {"smiles": "CCOC(=O)c1ccc(NS(=O)(=O)c2ccc3c(c2)NC(=O)CCS3)cc1", "note": "[SMR000630284]", "EC50": "> 300"}, {"smiles": "Nc1nc(NCC(=O)O)nc(NC2CCCCC2)c1[N+](=O)[O-]", "note": "[2-[[4-azanyl-6-(cyclohexylamino)-5-nitro-pyrimidin-2-yl]amino]ethanoic acid]", "EC50": "> 300"}, {"smiles": "O=C(NCC(c1ccco1)N1CCc2ccccc21)c1cccc([N+](=O)[O-])c1", "note": "(stereo unspecified) [SMR000811914]", "EC50": "> 300"}, {"smiles": "Cc1ccc(S(=O)(=O)CC(=O)c2cc3cccc(C)c3oc2=O)cc1", "note": "[8-methyl-3-[2-(4-methylphenyl)sulfonyl-1-oxoethyl]-1-benzopyran-2-one]", "EC50": "> 300"}, {"smiles": "COc1cccc(C(=O)NCCCNC(=O)c2cccc(OC)c2)c1", "note": "[3-methoxy-N-[3-[[(3-methoxyphenyl)-oxomethyl]amino]propyl]benzamide]", "EC50": "> 300"}, {"smiles": "Cc1cn(C2OC(COC(=O)c3ccccc3)C(O)C2O)c(=O)[nH]c1=O", "note": "(stereo unspecified) [benzoic acid [3,4-dihydroxy-5-(5-methyl-2,4-dioxo-1-pyrimidinyl)-2-oxolanyl]methyl ester]", "EC50": 19.2}, {"smiles": "CCCn1nc(NC(=O)C(C)C)c2cc3cc(OC)ccc3nc21", "note": "[N-(6-methoxy-1-propylpyrazolo[3,4-b]quinolin-3-yl)-2-methylpropanamide]", "EC50": "> 300"}, {"smiles": "Cc1ccc(SCCc2ccc(C)nc2)cc1", "EC50": "> 300"}, {"smiles": "COc1ccc(NC(=S)Nc2cccc(Cl)c2Cl)cc1OC", "EC50": "> 300"}, {"smiles": "O=C(O)CCN1C(=O)/C(=C\\c2ccc(-c3nc4ccccc4s3)o2)SC1=S", "note": "[3-[(5E)-5-[[5-(1,3-benzothiazol-2-yl)-2-furanyl]methylidene]-4-oxo-2-sulfanylidene-3-thiazolidinyl]propanoic acid]", "EC50": "> 300"}, {"smiles": "Cc1ccc(S(=O)(=O)CC(=O)Nc2ncc([N+](=O)[O-])s2)cc1", "note": "[2-(4-methylphenyl)sulfonyl-N-(5-nitro-1,3-thiazol-2-yl)acetamide]", "EC50": "> 300"}, {"smiles": "CC(=NNC(=O)c1nnn(-c2nonc2N)c1CN1CCC(C)CC1)c1cccc(Br)c1", "note": "[MLS001075097]", "EC50": 25.4}, {"smiles": "Cn1c(=O)[nH]c(=O)c2c1nc1n2CCCS1", "EC50": "> 300"}, {"smiles": "c1ccc(Nc2ncnc3[nH]ncc23)cc1", "EC50": 45.5}, {"smiles": "Nc1nonc1-n1nnc(C(=O)NN=Cc2ccccc2)c1CN1CCc2ccccc21", "note": "[1-(4-amino-1,2,5-oxadiazol-3-yl)-5-(2,3-dihydroindol-1-ylmethyl)-N-[(phenylmethylene)amino]-4-triazolecarboxamide]", "EC50": 3.62}, {"smiles": "CC1(C)CC2CC(C)(CN2S(=O)(=O)c2ccc(C(=O)Nc3ccc(Cl)c(S(=O)(=O)N4CCOCC4)c3)cc2)C1", "note": "(stereo unspecified) [N-[4-chloro-3-(4-morpholinylsulfonyl)phenyl]-4-[(3,3,5-trimethyl-7-azabicyclo[3.2.1]octan-7-yl)sulfonyl]benzamide]", "EC50": "> 300"}, {"smiles": "Nc1nonc1-n1nnc(C(=O)NN=Cc2cc(Cl)ccc2O)c1CN1CCCCCC1", "note": "[SMR000620619]", "EC50": 8.67}, {"smiles": "COc1ccc(CCNc2nc(-c3cccnc3)nc3ccccc23)cc1OC", "note": "[N-[2-(3,4-dimethoxyphenyl)ethyl]-2-pyridin-3-ylquinazolin-4-amine]", "EC50": "> 300"}, {"smiles": "CC(=O)NC(=S)Nc1ccccc1N1CCCCC1", "note": "[SMR000292167]", "EC50": "> 300"}, {"smiles": "CCN(CC)Cc1c(C(=O)NN=Cc2cccnc2)nnn1-c1nonc1N", "note": "[1-(4-amino-1,2,5-oxadiazol-3-yl)-5-(diethylaminomethyl)-N-(3-pyridinylmethylideneamino)-4-triazolecarboxamide]", "EC50": 9.17}, {"smiles": "C=CCNc1nc(N)c([N+](=O)[O-])c(NC2CCCCC2)n1", "note": "[4-N-cyclohexyl-5-nitro-2-N-prop-2-enylpyrimidine-2,4,6-triamine]", "EC50": 5.45}, {"smiles": "COC(=O)c1ccc2nc(NC(=O)C3CC3)sc2c1", "note": "[2-(cyclopropanecarbonylamino)-1,3-benzothiazole-6-carboxylic acid methyl ester]", "EC50": "> 300"}, {"smiles": "CCN(CC)C(=O)COc1cc(C)cc2oc(=O)cc(-c3ccccc3)c12", "note": "[N,N-diethyl-2-(7-methyl-2-oxo-4-phenylchromen-5-yl)oxyacetamide]", "EC50": "> 300"}, {"smiles": "c1ccc(CNc2ncnc3scc(-c4cccs4)c23)nc1", "note": "[N-(pyridin-2-ylmethyl)-5-thiophen-2-yl-thieno[2,3-d]pyrimidin-4-amine]", "EC50": "> 300"}, {"smiles": "COc1ccc(CN(CC(=O)NCc2ccco2)C(=O)CCC(=O)Nc2ccccn2)cc1", "note": "[N'-[2-(2-furanylmethylamino)-2-oxoethyl]-N'-[(4-methoxyphenyl)methyl]-N-(2-pyridinyl)butanediamide]", "EC50": "> 300"}, {"smiles": "O=C1C[C@@H](c2ccc(O)c(O)c2)Oc2cc(O)cc(O)c21", "note": "[2-[3,4-bis(oxidanyl)phenyl]-5,7-bis(oxidanyl)-2,3-dihydrochromen-4-one]", "EC50": "> 300"}, {"smiles": "COc1ccc(C(=O)N/C(=C\\c2ccco2)C(=O)NCCN2CCOCC2)cc1", "note": "[MLS000923740]", "EC50": "> 300"}, {"smiles": "COc1ccc(C=c2sc(=CC(=O)C(C)(C)C)[nH]c2=O)cc1O", "note": "[2-(3,3-dimethyl-2-oxidanylidene-butylidene)-5-[(4-methoxy-3-oxidanyl-phenyl)methylidene]-1,3-thiazolidin-4-one]", "EC50": 7.2}, {"smiles": "CCCC(=O)Nc1nn(CC(C)C)c2nc3cc(C)ccc3cc12", "note": "[SMR000540561]", "EC50": "> 300"}, {"smiles": "Cn1c(SCc2cccc(Br)c2)nnc1-c1ccncc1", "note": "[4-[5-(3-Bromo-benzylsulfanyl)-4-methyl-4H-[1,2,4]triazol-3-yl]-pyridine]", "EC50": "> 300"}, {"smiles": "CNc1nc(N)c([N+](=O)[O-])c(Nc2cccc(F)c2)n1", "note": "[SMR000436035]", "EC50": 12.4}, {"smiles": "CCc1cc(=O)oc2cc(OC(C)=O)cc(OC(C)=O)c12", "note": "[(5-acetyloxy-4-ethyl-2-oxidanylidene-chromen-7-yl) ethanoate]", "EC50": 28.5}, {"smiles": "CCOC(=O)C1CCN(CC(O)COC(CC)c2ccccc2)CC1", "note": "(stereo unspecified) [ethyl 1-[2-oxidanyl-3-(1-phenylpropoxy)propyl]piperidine-4-carboxylate;hydrochloride]", "EC50": "> 300"}, {"smiles": "O=NCc1ccc(SCc2ccccc2)c([N+](=O)[O-])c1", "note": "[SMR000169144]", "EC50": "> 300"}, {"smiles": "CCC(=NNC(=O)CSCc1ccccc1Cl)c1ccc2c(c1)OCCO2", "EC50": "> 300"}, {"smiles": "Cc1ccccc1CN=Nc1ncnc2nc[nH]c12", "note": "[MLS000419110]", "EC50": 17.2}, {"smiles": "Nc1nonc1-n1nnc(C(=O)NN=Cc2cccc(Cl)c2)c1CN1CCCC1", "EC50": 5.25}, {"smiles": "Cc1ccc(-c2nn(-c3ccccc3)cc2C=NNC(=O)c2ccc(Br)o2)cc1", "EC50": "> 300"}, {"smiles": "COc1ccc(CCNc2c(C=O)c(=O)[nH]c3ccccc23)cc1OC", "EC50": "> 300"}, {"smiles": "Nc1nc(NCCCN2CCOCC2)nc(Nc2cccc(Cl)c2)c1[N+](=O)[O-]", "note": "[MLS000769815]", "EC50": 4.25}, {"smiles": "CC1Cc2cc(S(=O)(=O)N3CCN(c4ccccc4)CC3)ccc2N1C(=O)C1CC1", "note": "(stereo unspecified)", "EC50": "> 300"}, {"smiles": "Clc1cccc(CNc2nc(-c3cccnc3)nc3ccccc23)c1", "note": "[N-[(3-chlorophenyl)methyl]-2-(3-pyridinyl)-4-quinazolinamine]", "EC50": "> 300"}, {"smiles": "COc1ccc(-c2nc(-c3ccccc3)[nH]c(=O)c2C#N)cc1", "note": "[SMR000168458]", "EC50": "> 300"}, {"smiles": "N#Cc1c(O)nc(SCC(=O)Nc2ccc(OC(F)(F)Cl)cc2)nc1-c1ccccc1", "note": "[N-{4-[chloro(difluoro)methoxy]phenyl}-2-[(5-cyano-6-oxo-4-phenyl-1,6-dihydropyrimidin-2-yl)thio]acetamide]", "EC50": "> 300"}, {"smiles": "COc1ccc(-c2nn(-c3ccccc3)cc2CO)cc1", "note": "[MLS000534260]", "EC50": "> 300"}, {"smiles": "O=C(CCSc1nnc(-c2ccncc2)o1)Nc1ccc(F)cc1", "note": "[N-(4-fluorophenyl)-3-[(5-pyridin-4-yl-1,3,4-oxadiazol-2-yl)thio]propanamide]", "EC50": "> 300"}, {"smiles": "O=C(NCCCN1CCCC1=O)c1c(O)n2ccsc2nc1=O", "note": "[5-hydroxy-7-oxo-N-[3-(2-oxo-1-pyrrolidinyl)propyl]-6-thiazolo[3,2-a]pyrimidinecarboxamide]", "EC50": "> 300"}, {"smiles": "CCCn1nc(NC(=O)C2CCCO2)c2cc3ccc(C)cc3nc21", "note": "(stereo unspecified) [N-(7-methyl-1-propyl-pyrazolo[3,4-b]quinolin-3-yl)oxolane-2-carboxamide]", "EC50": "> 300"}, {"smiles": "Nc1nc(NCc2ccc(Cl)cc2)nc(NCCO)c1[N+](=O)[O-]", "note": "[SMR000436738]", "EC50": 13.6}, {"smiles": "CC(C)(C)Sc1ccc(CN=O)cc1[N+](=O)[O-]", "note": "[SMR000335018]", "EC50": 23.6}, {"smiles": "O=c1cc(-c2ccccc2Cl)oc2cc(O)cc(O)c12", "note": "[2-(2-chlorophenyl)-5,7-dihydroxychromen-4-one]", "EC50": 1.67}, {"smiles": "COCC/N=C1\\Sc2nc3c(C)cccc3cc2CN1Cc1ccco1", "note": "[SMR000122349]", "EC50": "> 300"}, {"smiles": "Cc1[nH]nc2c1C(c1ccc(N(C)C)cc1)C1C(=O)CC(C)(C)CC1=N2", "note": "(stereo unspecified) [SMR000343282]", "EC50": 28}, {"smiles": "CCOc1cc(C=NN=C(N)N)ccc1OCc1ccc(Cl)cc1", "note": "[N''-{4-[(4-chlorobenzyl)oxy]-3-ethoxybenzylidene}carbonohydrazonic diamide]", "EC50": "> 300"}, {"smiles": "CC(=O)Oc1cc(C)cc2oc(=O)cc(-c3ccccc3)c12", "EC50": "> 300"}, {"smiles": "OCCNc1nc(-c2cccnc2)nc2ccccc12", "note": "[MLS000107346]", "EC50": "> 300"}, {"smiles": "COc1ccc(NC(=O)c2sc(SC)nc2N)cc1", "note": "[SMR000011170]", "EC50": "> 300"}, {"smiles": "CCC(O)CNc1nc(SC)nc2sc3c(c12)CCN(C)C3", "note": "(stereo unspecified)", "EC50": 1.75}]}]}
